According to PMC6952366 (Scientific Reports, 2020):
Where “and” joins values, the source holds several entries; their conditions need not be identical. Identical values can stand only once. Like-named read-outs stand apart in the source and are kept apart here.

Tests used:
[1] = pKa determination by acid titration; type: physicochemical; details: acid titration in water, Gran plot, 4 replicates
Protocol: The pKa of each compound was measured by acid titration. […] This procedure was repeated 4 times for each compound.

[2] = molecular target: T1, Shaker K+ channel (Drosophila melanogaster, UniProt P08510, DEL6-46); test: cell-based; type: cell-based, D. melanogaster; details: for δ (fractional distance through the membrane electrical field): Woodhull fit of IC50 vs voltage curves
T1 construct: expressed in transfected cells; host or cells: Xenopus laevis oocytes injected with in vitro transcribed cRNA (cDNA clone from the Bezanilla laboratory)
T1 sequence (P08510 other isoform, or with tags, fused parts or gaps DEL6-46): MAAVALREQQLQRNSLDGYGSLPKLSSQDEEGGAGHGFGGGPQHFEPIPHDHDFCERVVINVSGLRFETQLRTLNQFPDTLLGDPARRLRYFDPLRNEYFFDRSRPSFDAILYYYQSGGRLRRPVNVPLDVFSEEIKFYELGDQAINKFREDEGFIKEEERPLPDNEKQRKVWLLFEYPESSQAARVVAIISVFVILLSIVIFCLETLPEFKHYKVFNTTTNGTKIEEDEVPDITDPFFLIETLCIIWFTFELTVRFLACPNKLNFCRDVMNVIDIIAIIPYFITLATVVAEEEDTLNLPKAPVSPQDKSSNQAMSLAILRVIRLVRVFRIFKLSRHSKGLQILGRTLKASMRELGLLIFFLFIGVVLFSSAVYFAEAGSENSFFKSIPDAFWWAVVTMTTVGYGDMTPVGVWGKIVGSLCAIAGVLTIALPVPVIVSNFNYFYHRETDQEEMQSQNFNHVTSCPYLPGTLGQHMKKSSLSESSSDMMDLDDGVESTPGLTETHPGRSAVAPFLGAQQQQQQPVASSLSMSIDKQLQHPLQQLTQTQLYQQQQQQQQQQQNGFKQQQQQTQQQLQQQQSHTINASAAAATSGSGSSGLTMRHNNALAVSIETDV
Protocol: K^+ currents were measured in Xenopus oocytes expressing the commonly studied voltage-gated K^+ channel Shaker from D. melanogaster. In order to determine the relative blocking capacity, each drug was applied to the same oocyte at increasing concentrations ranging from 1 to 10,000 μM. Then, the relative current was determined as the ratio between the maximal amplitude of the K^+ current in the absence and in the presence of each drug. […] The Hill equation (Eq. 1) was fitted to the dose-response curves and used to calculate the IC50 for each drug at pH 7.4.
A sample of cDNA clone encoding for Shaker voltage-gated K^+ channel from D. melanogaster with inactivation removed[51] was generously provided by the laboratory of Prof. Francisco Bezanilla at The University of Chicago. The DNA was amplified, linearized with Not I enzyme (New England Biolabs, Inc., Ipswich, MA, USA) and transcribed in vitro using the T7 promoter mMESSAGE cRNA kit (Ambion, Austin, Tex., USA).
Shaker channel was heterologously expressed in Xenopus laevis oocytes. Only mature Xenopus laevis frogs (Aquanimals SA de CV, Queretaro, Mexico) were used as oocytes suppliers. A volume of 1−3 mL from the ovary lobes was extracted via survival surgery under anesthesia. All methods involving live animals were performed in accordance with relevant guidelines and regulations and with the approval of the Comité Institucional del Cuidado y Uso de Animales en el Laboratorio (CICUAL-CUCEI-UDG). Subsequently, oocytes were isolated with the treatment of collagenase type II (Worthington Biochemical Corp., NJ, USA) under mechanical agitation. After the isolation with collagenase, each oocyte was injected with 15–25 ng of RNA encoding for the Shaker ion channel and incubated for 8–12 h at 17 °C in a Standard Oocytes Saline (SOS) solution containing (in mM): 100 NaCl, 1 MgCl2, 10 HEPES, 2 KCl and 1.8 CaCl2 with 50 μg/mL gentamycin at pH 7.5.
All chemical compounds for this study were acquired from Sigma-Aldrich (Sigma-Aldrich Co., St. Louis, MO, USA) and Chem-Impex International (Chem-Impex International, Inc. Wood Dael, IL, USA) unless otherwise indicated. Electrophysiology measurements were conducted using the methodology of cut-open oocyte voltage clamp (COVC)[52]. For COVC procedures, the internal recording solution contained (in mM): 120 KOH, 2 EGTA, and 20 HEPES. The external recording solution was composed (in mM) by: 12 KOH, 2 Ca(OH)2, 105 NMDG (N-methyl-D-glucamine)-methylsufonate (MES), and 20 mM HEPES. For measurements carried out at pH of 6.8 and 7.4, the pH of both solutions was adjusted with MES. For measurements carried out at pH = 9.1, HEPES was replaced by 2-(cyclohexylamino)ethanesulfonic acid (CHES).
K^+ currents were recorded in the same oocyte, first in absence (IK) and then in presence of each drug (II). IK was elicited by depolarizing the oocyte membrane with a voltage protocol that consisted in steps of 50 ms from −100 to 50 mV in increments of 10 mV. […] The integrity and stability of each oocyte were continuously monitored throughout the experiment.
Ionic currents were amplified and digitized with the Oocyte Clamp Amplifier CA-1A (Dagan Corporation, Minneapolis, MN, USA) and the USB-1604-HS-2AO Multifunction Card (Measurement Computing, Norton, MA, USA), respectively, and controlled with the GpatchMC64 program (Department of Anesthesiology, UCLA, Los Angeles, CA, USA) via a PC. Data were sampled at 100 kHz and filtered at 10 kHz. All the experiments were performed at room temperature (21–23 °C).
Ion currents recordings were analyzed with Analysis (Department of Anesthesiology, UCLA, Los Angeles, CA, USA) and OriginPro 8 (OriginLab Corporation, Northampton, MA, USA.) programs.
Mean values of data ± standard deviation (s.d.) are given or plotted and the number of experiments is denoted by n. The 95% of confidence interval (IC95) is denoted as [Upper limit-Lower limit]; where Upper limit = 10^(logIC50+s.d) and Lower limit = 10^(logIC50−s.d) .

[3] = Octanol-water partition coefficient (logD) at pH 7.4, modified shake flask method; type: physicochemical; details: pH 7.4, 4 replicates
Protocol: The octanol-water partition coefficient (logD) at pH 7.4 was determined using a modified version of the shake flask method. Briefly, PBS (900 µL), 1-octanol (900 µL) and a 10 mg/mL aqueous solution of each compound (2 µL) were added to a 2 mL HPLC vial. The compounds were partitioned between the layers via vortexing and centrifuged at 1,000 g for 1 min to allow for phase separation. A portion (10 µL) was taken from each layer (autoinjector was set up to draw volume at two different heights) and analyzed by HPLC. The relative concentration in each phase was determined by integrating the area under each peak and comparing the ratio of the areas from the octanol and aqueous layers. A calibration curve was performed to ensure that the concentrations detected were within the linear range of the detector. This procedure was repeated 4 times for each compound.

[4] = cited from earlier work
[5] = 0 mV, pH 6.8, Hill fit, read-out: IC50
[6] = 0 mV, pH 7.4, Hill fit, read-out: IC50
[7] = 0 mV, pH 9.1, Hill fit, read-out: IC50
[8] = 40 mV, pH 7.4, Hill equation fit, read-out: IC50
[9] = fit of IC50 vs voltage curves (10 to 50 mV) with Woodhull model, mean ± SD, read-out: IC50 at V = 0 mV (Woodhull parameter)
[10] = over the voltage values studied, Fig. 4 shows 10 to 50 mV, read-out: IC50 increase with voltage (from lowest to highest voltage)
[11] = 1-octanol/PBS, pH 7.4, octanol/water (PBS), read-out: logD
[12] = IC50, 40 mV, pH 7.4, Hill equation fit
[13] = IC50 at V = 0 mV (Woodhull parameter), fit of IC50 vs voltage curves (10 to 50 mV) with Woodhull model, mean ± SD
[14] = IC50 increase with voltage (from lowest to highest voltage), over the voltage values studied, Fig. 4 shows 10 to 50 mV

| SMILES | pKa [1] | pKa ([1]; water, read-out: pKa) | IC50 [2, 5] [µM] | IC50 [2, 6] [µM] | IC50 [2, 7] [µM] | IC50 [2, 8] [µM] | δ (fractional distance through the membrane electrical field) [2] | IC50 [2, 9] [µM] | IC50 [2, 10] [µM] | logD [3, 11] | potency relative to 4AP ([2]; pH 7.4, 40 mV) | pKa [4] | logD ([3]; octanol/water (PBS)) | blocking of the channel ([2]; at 10 mM, pH 7.4, 40 mV) | IC50 ([2]; IC50, 0 mV, pH 6.8, Hill fit) [µM] | IC50 ([2]; IC50, 0 mV, pH 7.4, Hill fit) [µM] | IC50 ([2]; IC50, 0 mV, pH 9.1, Hill fit) [µM] | IC50 [2, 12] [µM] | IC50 [2, 13] [µM] | IC50 [2, 14] [µM] |
| --- | --- | --- | --- | --- | --- | --- | --- | --- | --- | --- | --- | --- | --- | --- | --- | --- | --- | --- | --- | --- |
| COc1cnccc1N [3MeO4AP, 3-methoxy-4-aminopyridine] | 9.18 ± 0.02 | > 9 | 357 | 355 | 492 | 807 | 0.56 ± 0.02 | 329 ± 17 | 310 to 992 | -0.76 ± 0.03 |  |  |  |  |  |  |  |  |  |  |
| Nc1ccncc1F [3F4AP, 3-fluoro-4-aminopyridine, reference compound] | 7.65 ± 0.15 | < 8 | 82 | 160 | 185 | 244 | 0.46 ± 0.10 | 122 ± 4 | 160 to 304 | 0.41 | comparable to 4AP | 7.6 | 0.414 ± 0.002 |  |  |  |  |  |  |  |
| Nc1ccnc(C(F)(F)F)c1 [2CF34AP, 2-trifluoromethyl-4-aminopyridine] | 7.0 ± 0.4 | < 8 | 10400 | 11900 | 18200 | 12800 |  |  |  | 1.48 |  |  | 0.906 ± 0.006 | ~ 50% |  |  |  |  |  |  |
| Cc1cnccc1N [3Me4AP, 3-methyl-4-aminopyridine] | 9.82 ± 0.06 | > 9 |  |  |  |  | 0.43 ± 0.10 |  |  |  |  |  | −1.23 and −1.232 ± 0.008 |  | 66 | 39 | 15 | 40 | 21 ± 1 | 37 to 50 |
| Nc1ccncc1 [4AP, 4-aminopyridine, reference compound] | 9.58 ± 0.07 | > 9 |  |  |  |  | 0.41 ± 0.08 |  |  |  |  |  | −1.48 and −1.478 ± 0.014 |  |  |  |  |  |  |  |
| Nc1ccncc1C(F)(F)F [3CF34AP, 3-trifluoromethyl-4-aminopyridine] | 7.17 ± 0.04 | < 8 |  |  |  |  | 0.46 ± 0.10 |  |  | 0.91 |  |  | 1.484 ± 0.009 |  | 249 | 690 | 2190 | 1060 | 516 ± 51 | 690 to 1150 |
